In assay [1] the test system is Ba/F3 cells harboring KRAS G12C. Nature of the assay: growth inhibition assay, Ba/F3 cells with KRAS G12C. Format: cell-based, murine. Particulars: Mus musculus, BaF3; Table 3, Ba/F3 G12C, 72 hours. The text has this:
(§1) Briefly, each KRAS mutation was introduced using a Prime STAR Mutagenesis Basal Kit (Takara) with designed primers into the pBABE-puro-KRas construct (Addgene, Cambridge, MA, USA). Retroviral particles were generated by co-transfection of each pBABE-puro-KRAS construct and pVSV-G vector (Clontech, Fremont, CA, USA) into gp-IRES 293 cells with FuGENE6 transfection reagent (Roche Diagnostics, Basel, Switzerland). Viral particles were concentrated using a retrovirus concentration kit (Clontech). Ba/F3 cells (3×103) or H358 cells (1×104) were transfected with each retrovirus and cultured at 37° C. for a few days. The transfected Ba/F3 cells or H358 cells were selected with 0.8-1.0 μg/mL or 2.0 μg/mL of puromycin, respectively. […]
(§2) In the two-dimensional (2D) growth inhibition assay, 5x10^3 cells were cultured in 96-well plates for 24 hours and treated with reagents at ten different concentrations for 72 hr. […] The amount of formazan dye, which reflects cell viability, was measured by reading the absorbance at 450 nm using a multiplate reader (Tecan, Mannedorf, Switzerland). […] IC50 values were determined by a nonlinear regression curve fit utilizing a variable slope model with normalized the response in GraphPad prism version 8 (GraphPad Software, San Diego, CA). […]

Assay [2] deals with Ba/F3 cells harboring KRAS G12C + A59S (introduced). Put plainly: growth inhibition assay, Ba/F3 cells with introduced KRAS G12C plus secondary mutation. Type of assay: cell-based, murine. Particulars: Mus musculus, BaF3; Table 3, Ba/F3 G12C + A59S, 72 hours. The source says:
(§3) Briefly, each KRAS mutation was introduced using a Prime STAR Mutagenesis Basal Kit (Takara) with designed primers into the pBABE-puro-KRas construct (Addgene, Cambridge, MA, USA). Retroviral particles were generated by co-transfection of each pBABE-puro-KRAS construct and pVSV-G vector (Clontech, Fremont, CA, USA) into gp-IRES 293 cells with FuGENE6 transfection reagent (Roche Diagnostics, Basel, Switzerland). Viral particles were concentrated using a retrovirus concentration kit (Clontech). Ba/F3 cells (3×103) or H358 cells (1×104) were transfected with each retrovirus and cultured at 37° C. for a few days. The transfected Ba/F3 cells or H358 cells were selected with 0.8-1.0 μg/mL or 2.0 μg/mL of puromycin, respectively. After puromycin selection, presence of each KRAS mutation was confirmed as follows; total RNA was extracted from cells using a mirVana miRNA Isolation Kit (Qiagen, Hilden, Germany), and cDNA was generated by reverse transcription using ReverTra Ace (TOYOBO, Osaka, Japan). The KRAS coding sequence was amplified by PCR. The KRAS nucleotide sequence was checked by Sanger sequencing using the 3130 or 3500XL Genetic Analyzer (Applied Biosystems, Waltham, MA).
(§4) In the two-dimensional (2D) growth inhibition assay, 5x10^3 cells were cultured in 96-well plates for 24 hours and treated with reagents at ten different concentrations for 72 hr. Cell viability assays were performed using Cell Counting Kit-8 (Dojindo Laboratories, Kumamoto, Japan). The amount of formazan dye, which reflects cell viability, was measured by reading the absorbance at 450 nm using a multiplate reader (Tecan, Mannedorf, Switzerland). In the 3D growth inhibition assay, 5×10^3 cells were embedded in growth factor-reduced Matrigel (Corning, New York, USA) and cultured in RPMI 1640 medium (Wako) with 10% FBS (Sigma-Aldrich) and P/S (Wako) in 96-well plates. After 72 hours of incubation, cells were treated with the indicated concentrations for 72 hours, and a cell viability assay was performed as described above. IC50 values were determined by a nonlinear regression curve fit utilizing a variable slope model with normalized the response in GraphPad prism version 8 (GraphPad Software, San Diego, CA).
(§5) The RI value was calculated with the following formula: IC50 of each reconstructed Ba/F3 cell/IC50 of parental Ba/F3 cells with KRAS G12C.
(§6) The results are shown as the mean values of three individual experiments. Error bars indicate the standard deviation (SD).

For assay [3], the system named is Ba/F3 cells harboring KRAS G12C + Y96D (introduced). The description is as above. Format: cell-based, murine. Particulars: Table 3, Ba/F3 G12C + Y96D.
Excerpt: as §3, §4, §5, §6

The test system of assay [4] is Ba/F3 cells harboring KRAS G12C + Y96S (introduced). The description is as above. Particulars: Table 3, Ba/F3 G12C + Y96S. Format: cell-based, murine.
Excerpt: as §3, §4, §5, §6

The subject of assay [5] is H358 cells harboring G12C plus Y96D. The note with it: 72 hours, FIG. 4.
Excerpt: as §1, §2

Assay [6] relates to H358 cells harboring G12C plus Y96S. The note with it: 72 hours, FIG. 4.
Excerpt: as §1, §2

Assay [7] relates to H358 cells with KRAS G12C + Y96D. Particulars: 2D, monotherapy.
Excerpt: as §1, with “Ba/F3 cells (3×103) or H358 cells (1×104) were transfected with each retrovirus and cultured at 37° C. for a few days.” left out
as §2

The test system of assay [8] is H358 cells with KRAS G12C + Y96S. Particulars: 2D, monotherapy.
Excerpt: as §1, with “Ba/F3 cells (3×103) or H358 cells (1×104) were transfected with each retrovirus and cultured at 37° C. for a few days.” left out
as §2

For assay [9], the system named is H358 cells with KRAS G12C + Y96D. The note with it: 3D, monotherapy.
Excerpt: as §1, §2

Assay [10] has as its system H358 cells with KRAS G12C + Y96S. Particulars: 3D, monotherapy.
Excerpt: as §1, §2

Like-named read-outs stand apart in the source and are kept apart here.

As to `C[C@@H]1OCC2(CCN(c3cnc(Sc4ccnc(N)c4Cl)c(N)n3)CC2)[C@@H]1N` [TNO 155], the IC50 (in general, the concentration at which inhibition is half-maximal) in assay [1] was 0.455 µM; in assay [2], 3.05 µM; in assay [3] (Mus musculus, BaF3, 72 h), greater than 1 µM; in assay [3] (72 hours) it was 1.09 µM; in assay [4] (Mus musculus, BaF3, 72 h), greater than 1 µM; in [4] (72 hours) it was 1.15 µM.

Take `C=CC(=O)N1CCN(c2nc(=O)n(-c3c(C)ccnc3C(C)C)c3nc(-c4c(O)cccc4F)c(F)cc23)[C@@H](C)C1` [sotorasib]: the “IC50 compared to parental H358 cells” value in [5] and in assay [6] was “approximately 30 times” in each case.

On to `COc1cc2nc(C)nc(N[C@H](C)c3cc(N)cc(C(F)(F)F)c3)c2cc1O[C@H]1CCOC1` [BI-3406], for which the “growth inhibition” value in assay [7], in [8], in assay [9] and in assay [10] was “modestly inhibited growth” throughout.

(Values after US20240238294A1, “ANTICANCER THERAPY” (Boehringer Ingelheim International GmbH, priority 2021, published 2024).)
